Data: US6818646B2 (priority 2000, dated 2004)

What was measured:
PDEV [1] = molecular target: T1, PDEV (Homo sapiens, UniProt O76074); assay: PDE assay: inhibition of PDEV isolated from human tissue; type: biochemical; details: for IC50: PDEV inhibitory activity
T1 construct: PDEV was isolated from rabbit and human tissues according to the protocol described by Boolell et al; from tissue; host or cells: human tissue, homogenate supernatant fractionated on Mono Q
Description: (§1) Briefly, rabbit or human tissues were homogenized in an ice-cold buffer solution containing 20 mM HEPES (pH 7.2), 0.25M sucrose, 1 mM EDTA, and 1 mM phenylmethylsulphonyl fluoride (PMSF). The homogenates were centrifuged at 100,000 g for 60 minutes at 4° C. The supernatant was filtered through […] filter and loaded on a Pharmacia Mono Q anion exchange column (1 ml bed volume) that was equilibrated with 20 mM HEPES, 1 mM EDTA and 0.5 mM PMSF. After washing out unbound proteins, the enzymes were eluted with a linear gradient of 100-600 mM NaCl in the same buffer (35 to 50 ml total, depending on the tissue. Enzymes from the skeletal muscle, corpus cavernosum, retina, heart and platelet were eluted with 35, 40, 45, 50, and 50 ml respectively.) The column was run at a flow rate of 1 ml/min and 1 ml fractions were collected. The fractions comprising various PDE activities were pooled separately and used in later studies.
(§2) The assays were adapted to a 96-well format. The enzyme was assayed in 5 mM MgCl2, 15 mM Tris HCl (pH 7.4), 0.5 mg/ml bovine serum albumin, 1 μM cGMP or cAMP, 0.1 μCi [^3H]-cGMP or [^3H]-cAMP, and 2-10 μl of column elution. The total volume of the assay was 100 μl. The reaction mixture was incubated at 30° C. for 30 minutes. The reaction was stopped by boiling for 1 minute and then cooled down on ice. The resulting [^3H]5′-mononucleotides were further converted to uncharged [^3H]-nucleosides by adding 25 μl 1 mg/ml snake venom (Ophiophagus hannah) and incubating at 30° C. for 10 minute. The reaction was stopped by the addition of 1 ml Bio-Rad AG1-X2 resin slurry (1:3). All the charged nucleotides were bound by the resin and only uncharged [^3H]-nucleosides remained in the supernatant after centrifuging. An aliquot of 200 μl was taken and counted by liquid scintillation. PDE activity was expressed as pmol cyclic nucleotide hydrolyzed/min/ml of enzyme preparation.
(§3) Inhibitor studies were carried out in assay buffer with a final concentration of 10% DMSO.
(§4) The % inhibition of the maximum substrate conversion (by the enzyme in the absence of inhibitor) was calculated for each test compound concentration. Using GraphPad Prism's nonlinear regression analysis (sigmoidal dose response), the % inhibition vs log of the test compound concentration was plotted to determine the IC50. Under conditions where substrate concentration <<Km of the enzyme (Km=substrate concentration at which half of the maximal velocity of the enzyme is achieved), Ki is equivalent to the IC50 value.
(§5) Unless otherwise noted, PDEV inhibitory activities were measured using human tissue. The abbreviation “stereo” refers to the stereogenic configuration, the abbreviation “Rac” shall denote a racemic mixture.

PDEV [2] = molecular target: PDEV (Oryctolagus cuniculus, UniProt G1SX67); assay: PDE assay: inhibition of PDEV isolated from rabbit tissue; type: biochemical; details: PDEV inhibitory activity, rabbit tissue (footnote a)
Description: as §1, §2, §3, §4, §5

[3] = In vivo testing for efficacy, procedure of Carter et al.
Description: Following the procedure disclosed by Carter et al., (Carter, A. J., Ballard, S. A., and Naylor, A. M.) in The Journal of Urology 1998, 160, 242-246, the compounds as listed in Table 7 were tested for in vivo efficacy, with results as tabulated below.

PDEV [4] = molecular target: T1, PDEV; assay: In vitro determination of Ki for phosphodiesterase inhibitors; type: biochemical; details: human tissue; given as 'Ki ='
Description: The assays were adapted to a 96-well format. Phosphodiesterase was assayed in 5 mM MgCl2, 15 mM Tris HCl (pH 7.4), 0.5 mg/ml bovine serum albumin, 30 nM ^3H-cGMP and test compound at various concentrations. The amount of enzyme used for each reaction was such that less than 15% of the initial substrate was converted during the assay period. For all measurements, the test compound was dissolved and diluted in 100% DMSO (2% DMSO in assay). The total volume of the assay was 100 μl. The reaction mixture was incubated at 30° C. for 90 minutes. The reaction was stopped by boiling for 1 minute and then immediately cooled by transfer to an ice bath. To each well was then added 25 μl 1 mg/ml snake venom (Ophiophagus hannah) and the reaction mixture incubating at 30° C. for 10 minute. The reaction was stopped by the addition of 1 ml Bio-Rad AG1-X2 resin slurry (1:3). An aliquot of 200 μl was taken and counted by liquid scintillation.
as §4, §5

`COc1ccc(-c2cnc(N3Cc4c([nH]c5ccccc5c4=O)C3c3ccc4c(c3)OCO4)nc2)cc1` (racemic) [Compound 2, 1,2,3,4-Tetrahydro-2-[5-(4-methoxyphenyl)-pyrimidin-2-yl]-3-(3,4-methylene-dioxyphenyl)-9H-pyrrolo-[3,4-b]quinolin-9-one] gave an IC50 (PDEV [1]) of 0.191 nM and a melting point of 325 to 327 °C.
`COc1ccc(C2NCc3c2[nH]c2ccccc2c3=O)cc1OC` (racemic) [Compound 12, 1,2,3,4-Tetrahydro-3-(3,4-dimethoxyphenyl)-9H-pyrrolo-[3,4-b]quinolin-9-one] gave an IC50 (PDEV [2]) of 549 nM and a melting point of 223 to 225 °C.
For `O=c1c2c([nH]c3ccccc13)C(c1ccc3c(c1)OCO3)N(C(=S)n1ccnc1)C2` (racemic) [Compound 18, 1,2,3,4-Tetrahydro-2-(imidazol-1-yl)thiocarbonyl-3-(3,4-methylenedioxyphenyl)-9H-pyrrolo-[3,4-b]quinolin-9-one], the inhibition at 10 µM (PDEV [1]; 10 μM test compound) was 54% and the melting point was 211 to 215 °C (dec.).
With `Cl.O=C(OCc1ccncc1)N1Cc2c([nH]c3ccccc3c2=O)C1c1ccc2c(c1)OCO2` (racemic) [Compound 37, 1,2,3,4-Tetrahydro-2-[(4-pyridinyl)methyloxycarbonyl]-3-(3,4-methylenedioxyphenyl)-9H-pyrrolo-[3,4-b]quinolin-9-one, hydrochloride salt] the IC50 (PDEV [1]) was 5.72 nM and the Efficacy [3] was “Active”.
In the case of `COc1ccc(-c2cnc(N3Cc4c([nH]c5ccccc5c4=O)[C@H]3c3ccc4c(c3)OCO4)nc2)cc1OC` [Compound 36, (R)-1,2,3,4-Tetrahydro-2-[5-(3,4-dimethoxyphenyl)-pyrimidin-2-yl]-3-(3,4-methylenedioxyphenyl)-9H-pyrrolo-[3,4-b]quinolin-9-one], the IC50 (PDEV [1]) is reported as 0.075 nM and the Efficacy [3] is reported as “Active”.
For `O=c1c2c([nH]c3ccccc13)[C@@H](c1ccc3c(c1)CCO3)N(c1ncc(-c3ccccn3)cn1)C2` [Compound 65, (R)-1,2,3,4-Tetrahydro-2-[5-(2-pyridinyl)-pyrimidin-2-yl]-3-(2,3-dihydrobenzofuranyl)-9H-pyrrolo-[3,4-b]quinolin-9-one], the IC50 (PDEV [1]) was 0.23 nM and the Efficacy [3] was “Active”.
For `COc1ccc(-c2cnc(N3Cc4c([nH]c5ccccc5c4=O)[C@H]3c3ccc4c(c3)CCO4)nc2)cc1` [Compound 66, (R)-1,2,3,4-Tetrahydro-2-[5-(4-methoxyphenyl)-pyrimidin-2-yl]-3-(2,4-dihydrobenzofuranyl)-9H-pyrrolo-[3,4-b]quinolin-9-one], the IC50 (PDEV [1]) was 0.19 nM and the Efficacy [3] was “Active”.
`O=c1c2c([nH]c3ccccc13)C(c1ccc3c(c1)CCO3)N(c1ccccn1)C2` (stereo not drawn) [Compound 136, 3-(2,3-Dihydro-benzofuran-5-yl)-2-pyridin-2-yl-1,2,3,4-tetrahydro-pyrrolo[3,4-b]quinolin-9-one] showed a Ki (PDEV [4]) of 0.18 nM.
